The values that follow come from patent US20230303540A1 (Merck Sharp & Dohme LLC, priority 2020, published 2023).

For this assay, the target named is GST-tagged truncated human mutant G2019S LRRK2 (Homo sapiens, UniProt Q5S007, G2019S). Description: LRRK2 G2019S Km ATP LanthaScreen assay. It is filed as biochemical. The note with it: 134 μM ATP (Km ATP), LRRKtide substrate, mean IC50 values; read-out: LRRK2 pIC50 (converted). In outline: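 Compound preincubated 15 min at room temperature with enzyme in pH 8.5 Tris buffer (10 mM MgCl2). Then a 90 min reaction at ambient temperature with 134 μM (Km) ATP and fluorescein-LRRKtide. EDTA stop, Tb anti-phospho antibody TR-FRET; […]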
Turning to `Clc1cc2cnc(Nc3cnn(C45CC(C4)C5)c3Cl)nc2cc1N1CCNCC1` [Ex-12.10, N-(1-(bicyclo[1.1.1]pentan-1-yl)-5-chloro-1H-pyrazol-4-yl)-6-chloro-7-(piperazin-1-yl)quinazolin-2-amine], the IC50 is 0.00213 µM.

On to `[2H]C([2H])([2H])n1nc(C(C)(C)n2nccn2)cc1Nc1ncc2cc(Cl)c(N3CCC(C)(O)CC3)cc2n1` [Ex-14.1, 1-(2-((3-(2-(2H-1,2,3-Triazol-2-yl)propan-2-yl)-1-(methyl-d3)-1H-pyrazol-5-yl)amino)-6-chloroquinazolin-7-yl)-4-methylpiperidin-4-ol], for which the IC50 is 0.00411 µM.

For the compound `CC(C)(O)Cn1ncc(Nc2ncc3cc(Br)c(NCC4CC4)nc3n2)c1Cl` [Ex-15.1, 1-[4-({6-Bromo-7-[(cyclopropylmethyl)amino]pyrido[2,3-d]pyrimidin-2-yl}amino)-5-chloro-1H-pyrazol-1-yl]-2-methylpropan-2-ol], the IC50 is 0.0367 µM.

Take `CC1(N2CCN(c3nc4nc(Nc5cnn(CC(F)F)c5Cl)ncc4cc3Cl)CC2)COC1` [Ex-15.2, 6-chloro-N-[5-chloro-1-(2,2-difluoroethyl)-1H-pyrazol-4-yl]-7-[4-(3-methyloxetan-3-yl)piperazin-1-yl]pyrido[2,3-d]pyrimidin-2-amine]: the IC50 was 0.0608 µM.

For `Cc1c(Nc2ncc3cc(F)c(NCC4CC4)nc3n2)cnn1C1CCOCC1` [Ex-15.5, N-7-(cyclopropylmethyl)-6-fluoro-N-2-[5-methyl-1-(oxan-4-yl)-1H-pyrazol-4-yl]pyrido[2,3-d]pyrimidine-2,7-diamine], the IC50 is 0.0326 µM.

On to `FC(F)(F)C1(n2ncc(Nc3ncc4cc(Cl)c(N5CCN(C6COC6)CC5)cc4n3)c2Cl)CC1` [Ex.3.23, 6-chloro-N-{5-chloro-1-[1-(trifluoromethyl)cyclopropyl]-1H-pyrazol-4-yl}-7-[4-(oxetan-3-yl)piperazin-1-yl]quinazolin-2-amine], for which the IC50 was 0.00345 µM.
